Source: US6852692B1, “Composition for promoting passive extension of bladder smooth muscle” (Shionogi & Co., Ltd., priority 1999, dated 2005)

Experiments:
[1] = tested on: urinary bladder strips; assay: Extension of rat urinary bladder strips under 1 g tension (isotonic transducer); conditions: 100 nM adrenomedullin in Tyrode's solution, tension 1 g, male rat bladder strips, repeated five times, FIG. 2
Description: 8 to 16 weeks old male rats were sacrificed by hammering their heads. Thereafter, the rats were decapitated, followed by exsanguination. The urinary bladders were isolated from the rats. Each isolated urinary bladder was cut into four portions, thereby obtaining urinary bladder strips (FIG. 1).
The effect of adrenomedullin on the rat urinary bladder was examined by measuring contractions of the urinary bladder strips using an isotonic transducer TD-112S (manufactured Nippon Kohden Corporation) where the tension was 1 g.
The urinary bladder strips were firstly immersed in 30 ml of Tyrode's solution with 100 nM adrenomedullin (experimental sample) or without it (control sample). In this situation, the sections were attached to the […] transducer where the tension was 1 g, to continuously measure relaxation of the urinary bladder. The composition of the Tyrode's solution is as follows: 139 mM NaCl, 2.7 mM KCl, 11.9 mM NaHCO3, 2.6 mM MgCl2.6H2O, 0.4 mM NaH2PO4.2H2O, 1.7 mM CaCl2, and 5.5 mM glucose; pH 7.4).
The above-described experiment was repeated five times. Solid colored circles indicate the results of the experimental sample, while plain circles indicate averages of the control sample. Vertical bars indicate the standard deviation of a two-way analysis of variance. The vertical axis indicates the length of relaxation (mm), while the horizontal axis indicate time (minutes).

[2] = tested on: mesenteric artery; conditions: Nakamura et al., Jpn. J. Pharmacol. 67, 259-262 (1995), FIG. 1; cited from earlier work
[3] = tested on: urinary bladder strips; assay: Static tension and acetylcholine-induced contraction of rat urinary bladder strips (isometric transducer)
Procedure: Urinary bladder strips were prepared in a manner similar to that of Example 1. The urinary bladder sections were attached to an isometric transducer FD pickup TB611T (manufactured by Nippon Kohden Corporation) in Tyrode's solution. Contraction of the urinary bladder was continuously measured. Firstly, 30 nM to 1 mM acetylcholine was added to the Tyrode's solution. […] In FIG. 3, the vertical axis indicates tension (unit: g), while the horizontal axis indicates time. Contraction induced by acetylcholine was confirmed, followed by washing out acetylcholine. Thereafter, 100 nM adrenomedullin was added to the Tyrode's solution. […] Further, 30 nM to 1 mM acetylcholine was added to the Tyrode's solution. As a result, recontraction of the urinary bladder occured.

[4] = tested on: urinary bladder; conditions: Nishimura et al., British J. Pharmacology, 120, 193-200 (1997), FIG. 6; cited from earlier work

adrenomedullin: synthesized peptide consisting of an amino acid sequence from Tyr in position 1 to Tyr in position 50 of SEQ ID NO: 6 (rat-derived)
extension (length of relaxation) of the urinary bladder wall versus absence of adrenomedullin [1]: more extended
extension of contracted mesenteric artery by addition of adrenomedullin [2]: extended by addition of adrenomedullin in a concentration-dependent manner
contraction (static tension) of the urinary bladder after addition of adrenomedullin alone ([3]; 100 nM adrenomedullin in Tyrode's solution, after washing out acetylcholine, FIG. 3): not contracted
contraction induced by acetylcholine in the presence of adrenomedullin versus acetylcholine alone ([3]; 100 nM adrenomedullin, 30 nM to 1 mM acetylcholine): not significantly different
contraction or extension (active extension) of the urinary bladder on addition of adrenomedullin [4]: does not cause contraction or extension
